Data from patent US20070092577A1, “Dietary calcium for reducing the production of reactive oxygen species” (University of Tennessee Research Foundation, priority 2005, published 2007).

Experiments:
[1] = system: adiponectin; experiment: Adiponectin expression in differentiated Zen-bio human adipocytes; assay type: cell-based; conditions: 10 nmol/L 1α, 25-(OH)2-D3 or 10 μmol/L nifedipine, 48 h; p=0.377
Protocol: (§1) Human pre-adipocytes used in this study were supplied by Zen-Bio (Research Triangle, N.C.). […] The cells are isolated from the stromal vascular fraction of human subcutaneous adipose tissue and differentiated in vitro as follows: […] Preadipocytes were maintained in this differentiation medium for 3 days and subsequently cultured in adipocyte medium in which BRL49653 and MIX were omitted. Cultures were re-fed every 2-3 days till fully differentiated. Cells were incubated in serum free medium overnight before chemical treatment. Chemicals were freshly diluted in adipocyte medium before treatment. […] Cell viability was measured via trypan blue exclusion. Adipocyte and muscle 18s, TNFα, IL-6, IL-8, IL-15 and adiponectin were quantitatively measured using a smart cycler real-time PCR system (Cepheid, Sunnyvale, Calif.) with a TaqMan 1000 Core Reagent Kit (Applied Biosystems, Branchburg, N.J.). […] Reactions of quantitative RT-PCR for standards and unknown samples were also performed according to the instructions of Smart Cycler System (Cepheid, Sunnyvale, Calif.) and TaqMan Real Time PCR Core Kit (Applied Biosystems, Branchburg, N.J.). The mRNA quantitation for each sample was further normalized using the corresponding 18s quantitation.

[2] = system: MIF; experiment: MIF expression in mouse (3T3-L1) adipocytes; assay type: cell-based; conditions: calcitriol 10 nmol/L, 48 hours
Protocol: (§2) RAW 264 macrophages and 3T3-L1 preadipocytes (American Type Culture Collection) were incubated at a density of 8000 cells/cm2 (10 cm2 dish) and grown in Dulbecco's modified Eagle's medium (DMEM) containing 10% FBS and antibiotics (adipocyte medium) at 37° C. in 5% CO2 in air. Confluent 3T3-L1 preadipocytes were induced to differentiate with a standard differentiation medium consisting of DMEM-F10 (1:1, vol/vol) medium supplemented with 1% FBS, 1 μM dexamethasone, IBMX (0.5 mM) and antibiotics (1% Penicillin-Streptomycin). Preadipocytes were maintained in this differentiation medium for 3 days and subsequently cultured in adipocyte medium. […]
(§3) Cells were washed with fresh adipocyte medium, re-fed with medium containing the indicated treatments, and incubated at 37° C. in 5% CO2 for 48 hours before analysis. Cell viability was measured via trypan blue exclusion.
(§4) Adipocyte and muscle 18s, CD14, TNFα, MIP, M-CSF, IL-6 and MCP-1 were quantitatively measured using a Smart Cycler Real Time PCR System (Cepheid, Sunnyvale, Calif.) with a TaqMan 1000 Core Reagent Kit (Applied Biosystems, Branchburg, N.J.). […] Reactions of quantitative RT-PCR for standards and unknown samples were also performed according to the instructions of Smart Cycler System (Cepheid, Sunnyvale, Calif.) and TaqMan Real Time PCR Core Kit (Applied Biosystems, Branchburg, N.J.). […]

[3] = system: MCP-1; experiment: MCP-1 expression in 3T3-L1 adipocytes; assay type: cell-based, mouse; conditions: calcitriol 10 nmol/L, 48 hours
Protocol: as §2, §3, §4

[4] = system: MIP; experiment: MIP expression in 3T3-L1 adipocytes; assay type: cell-based, mouse; conditions: calcitriol 10 nmol/L, 48 hours
Protocol: as §2, §3, §4

[5] = system: CD14; experiment: CD14 expression in mouse (3T3-L1) adipocytes; assay type: cell-based; conditions: calcitriol 10 nmol/L, 48 hours
Protocol: as §2, §3, §4

[6] = system: IL-15; experiment: IL-15 expression in differentiated Zen-bio human adipocytes; assay type: cell-based; conditions: 10 nmol/L 1α, 25-(OH)2-D3 or 10 μmol/L nifedipine, 48 h; p=0.473
Protocol: as §1

[7] = system: TNFα; experiment: TNFα expression in differentiated 3T3-L1 adipocytes; assay type: cell-based, mouse; conditions: 10 nmol/L, 48 h
Protocol: 3T3-L1 pre-adipocytes were incubated at a density of 8000 cells/cm^2 (10 cm^2 dish) and grown in Dulbecco's modified Eagle's medium (DMEM) containing 10% FBS and antibiotics (adipocyte medium) at 37° C. in 5% CO2 in air. Confluent pre-adipocytes were induced to differentiate with a standard differentiation medium consisting of DMEM-F10 (1:1, vol/vol) medium supplemented with 1% fetal bovine serum (FBS), 1 μM dexamethasone, isobutylmethylxanthine (IBMX) (0.5 mM) and antibiotics (1% Penicillin-Streptomycin). Pre-adipocytes were maintained in this differentiation medium for 3 days and subsequently cultured in adipocyte medium. Cultures were re-fed every 2-3 days to allow 90% cells to reach fully differentiation before conducting chemical treatment. […] Cell viability was measured via trypan blue exclusion. Adipocyte and muscle 18s, TNFα, IL-6, IL-8, IL-15 and adiponectin were quantitatively measured using a smart cycler real-time PCR system (Cepheid, Sunnyvale, Calif.) with a TaqMan 1000 Core Reagent Kit (Applied Biosystems, Branchburg, N.J.). […] Reactions of quantitative RT-PCR for standards and unknown samples were also performed according to the instructions of Smart Cycler System (Cepheid, Sunnyvale, Calif.) and TaqMan Real Time PCR Core Kit (Applied Biosystems, Branchburg, N.J.). The mRNA quantitation for each sample was further normalized using the corresponding 18s quantitation.

[8] = system: IL-6; experiment: IL-6 expression in RAW 264 macrophages; assay type: cell-based
Protocol: RAW 264 macrophages and 3T3-L1 preadipocytes (American Type Culture Collection) were incubated at a density of 8000 cells/cm2 (10 cm2 dish) and grown in Dulbecco's modified Eagle's medium (DMEM) containing 10% FBS and antibiotics (adipocyte medium) at 37° C. in 5% CO2 in air. Confluent 3T3-L1 preadipocytes were induced to differentiate with a standard differentiation medium consisting of DMEM-F10 (1:1, vol/vol) medium supplemented with 1% FBS, 1 μM dexamethasone, IBMX (0.5 mM) and antibiotics (1% Penicillin-Streptomycin). Preadipocytes were maintained in this differentiation medium for 3 days and subsequently cultured in adipocyte medium. Cultures were re-fed every 2-3 days to allow 90% cells to reach fully differentiation for 3T3-L1 adipocytes or grow to a confluence for RAW 264 before conducting chemical treatment.
Human adipocytes (Zen-Bio, Inc.), 3T3-L1 adipocytes, RAW264 macrophages were obtained and co-cultured by using transwell inserts with 0.4 μm porous membranes (Corning) to separate adipocytes and macrophages. All data are expressed as mean±SEM. Data were evaluated for statistical significance by analysis of one-way or two-way variance (ANOVA; means with different letter differ, p<0.05).
Adipocyte and muscle 18s, CD14, TNFα, MIP, M-CSF, IL-6 and MCP-1 were quantitatively measured using a Smart Cycler Real Time PCR System (Cepheid, Sunnyvale, Calif.) with a TaqMan 1000 Core Reagent Kit (Applied Biosystems, Branchburg, N.J.). The primers and probe sets were obtained from Applied Biosystems TaqMan® Assays-on-Demand™ Gene Expression primers and probe set collection according to manufacture's instruction. […] Reactions of quantitative RT-PCR for standards and unknown samples were also performed according to the instructions of Smart Cycler System (Cepheid, Sunnyvale, Calif.) and TaqMan Real Time PCR Core Kit (Applied Biosystems, Branchburg, N.J.). The mRNA quantitation for each sample was further normalized using the corresponding 18s quantitation.

## C=C1/C(=C\C=C2/CCC[C@]3(C)[C@@H]([C@H](C)CCCC(C)(C)O)CC[C@@H]23)C[C@@H](O)C[C@@H]1O [calcitriol, 1, 25-Dihydroxyvitamin D]
[1]
  effect on adiponectin expression: no effect
[2]
  increase of MIF expression: 50%
[3]
  effect on MCP-1 expression: markedly stimulate
[4]
  effect on MIP expression: markedly stimulate
[5]
  increase of CD14 expression: 45%
[6]
  effect on IL-15 expression: no effect
[7]
  stimulation of TNFα expression: 135%
[8]; co-culture with differentiated 3T3-L1 adipocytes
  effect on IL-6 expression in macrophages in co-culture: further enhanced
[8]; macrophages cultured alone, calcitriol 10 nmol/L, 48 hours
  stimulation of IL-6 expression: 796%
